Ten molecules from EP0309424A2, “New amidino derivatives” (ISTITUTO DE ANGELI S.p.A., priority 1987, dated 1989) can be followed below.

Structures can show the parent of a compound that is named as a salt.

One assay deals with T1, muscarinic receptors of the cerebral cortex (Rattus norvegicus, UniProt P08482).
T1 construct: displacement of ^3H-pirenzepine from cerebral cortex homogenate; from tissue; host or cells: rat cerebral cortex homogenate
T1 sequence (P08482 1-460): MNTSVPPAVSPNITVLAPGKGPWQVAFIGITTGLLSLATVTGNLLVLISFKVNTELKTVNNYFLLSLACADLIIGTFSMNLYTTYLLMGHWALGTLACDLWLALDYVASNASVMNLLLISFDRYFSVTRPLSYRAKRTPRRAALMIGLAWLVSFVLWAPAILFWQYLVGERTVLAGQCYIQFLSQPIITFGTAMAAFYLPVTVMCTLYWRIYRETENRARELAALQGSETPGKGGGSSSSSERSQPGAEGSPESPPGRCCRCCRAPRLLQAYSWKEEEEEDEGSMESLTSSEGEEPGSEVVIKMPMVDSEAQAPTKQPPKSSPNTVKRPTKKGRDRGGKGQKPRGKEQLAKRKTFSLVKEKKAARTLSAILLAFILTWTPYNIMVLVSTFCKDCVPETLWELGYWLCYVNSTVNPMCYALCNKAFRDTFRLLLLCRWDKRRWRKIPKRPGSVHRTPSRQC
The assay can be described thus: Antimuscarinic activity (in vitro binding studies): displacement of 3H-pirenzepine from cerebral cortex homogenate.
Conditions: not given
Also on record: species or system male CD-COOBBS rats. On the procedure: Antimuscarinic activity was examined by studying the displacement of ^3H-pirenzepine from cerebral cortex homogenate according to the procedure reported below: • The cerebral cortex donors were male CD-COOBBS rats, 220-250 g body weight. The homogenization process was carried out in a Potter-Evelhjem apparatus in the presence of Na^+/Mg^++ HEPES buffer; pH 7.4 (100 mM NaCI, 10 mM MgC12, 20 mM HEPES), by filtering the suspension through two layers of cheesecloth. Binding curves for the under study compounds were derived indirectly from competition experiments against 0.5 nM ^3H-pirenzepine labelling the muscarinic receptors of the cerebral cortex. 1 ml of the homogenate was incubated for 45 min at 30° C in the presence of a marker ligand and different concentrations of the cold ligand, conditions under which equilibrium was reached as determined by appropriate association experiments. The incubation was terminated by centrifugation (12,000 rpm for 3 min) at room temperature using an Eppendorf microcentrifuge. The resultant pellet was washed twice with 1.5 ml saline to remove the free radioactivity and it was allowed to drain for some hours. The tips of the tubes containing the pellet were cut off and 200 µl of tissue solubilizer (Lumasolve, Lumac) were added and left to stand overnight. Radioactivity was then counted after addition of 4 ml of liquid scintillation mixture (Dimilume/Toluene 1:10 v:v, Packard)
Non-specific binding avaraged less than 30%. KD values (dissociation constants) were obtained by non-linear regression analysis on the basis of a one binding site model with TOPFIT-pharmacokinetic programme package (G. HEINZEL, "Pharmacokinetics during drug development: data analysis and evaluation techniques" Eds. G. BOLZER and J.M. VAN ROSSUM; p. 207, G. Fisher, New York, 1982) after correction for the radioligand occupancy shift according to the equation: Ko = ICso/1 + *C/*KD, where "C and *KD represent the concentration and the dissociation constant of the radioligand used, respectively.
With `CC(=N)N1C2CC(OC(=O)C(CO)c3ccccc3)CC1C1OC12` (single isomer, unassigned; (-)) [Compound 65, (-)-N-iminoethyl-norscopolamine], the Ki came to 2 nM.

`CC(=N)N1C2CCC1CC(OC(=O)C(CO)c1ccccc1)C2` (racemic) [Compound 64, N-iminoethyl-noratropine] yielded a Ki of 3.4 nM.

Turning to `N=C(N)N1C2CCC1CC(OC(=O)C(CO)c1ccccc1)C2` (racemic) [Compound 1, N-guanyl-Noratropine], the Ki stood at 7 nM.

Still in this assay, the particulars now being: competition against 0.5 nM 3H-pirenzepine, rat cerebral cortex homogenate, 45 min at 30° C, corrected for radioligand occupancy shift; read-out: Dissociation constants (KD) for 3H-pirenzepine binding.
Regarding `N=CN1CCN(CC(O)(c2ccccc2)C2CCCCC2)CC1` (stereo not shown) [Compound 35, N-iminomethyl-N'-[(2-hydroxy-2-phenyl-2-cydohexyl)-ethyl]-piperazine], the Ki worked out at 12 nM.

`N=C(N)N1CCN(CC(O)(c2ccccc2)C2CCCCC2)CC1` (stereo not shown) [Compound 4, N-guanyl-N'-[(2-phenyl-2-cyclohexyl-2-hydroxy)-ethyl]-piperazine]: the Ki is 17 nM.

Turning to `N=CN1CCC(OC(=O)C(c2ccccc2)c2ccccc2)CC1` [Compound 34, Benzeneacetic acid,α-phenyl,1-(iminomethyl)-4-piperidinyl ester, hydrochloride], the Ki was found to be 4.4 nM.

As for `CN=CN1CCC(=C(c2ccccc2)c2ccccc2)CC1` [Compound 28, Piperidine,4-(diphenylmethylene)-,1-[N-methyl-(iminomethyl)]], the Ki was found to be 32 nM.

Take `N=C(N)N1CCC(CC(O)(c2ccccc2)c2ccccc2)CC1` [Compound 24, 2-[(N-guanyl-piperidin-4-yl)]-1,1-diphenyl-ethanol]: the Ki was 38 nM.

For the molecule `N=C(N)N1CCC(OC(=O)C(c2ccccc2)c2ccccc2)CC1` [Compound 14, Benzeneacetic acid,a-phenyl-,1-guanyl-4-piperidinyl ester], the Ki is 15 nM.

As to `CC(=N)N1CCN(CC(O)(c2ccccc2)C2CCCCC2)CC1` (stereo not shown) [Compound 62, N-(iminoethyl)-N'-[(2-hydroxy-2-phenyl-2-cyclohexyl)ethyl]-piperazine], the Ki worked out at 30 nM.
